Experimental findings from patent US20100119599A1 (ARCHER PHARMACEUTICALS, INC., priority 2006, published 2010) are described below.

SMILES strings stand for the structures.

The subject of test [1] is Aβ1-40. The experiment in a line: Measurement of Aβ1-40 in culture medium of 7W WT APP751 CHO cells by ELISA. The test is classed as cell-based, Chinese hamster. The settings on record: for activity at 5 µM: Cricetulus griseus, Table 1, 5 μM test compound, CHO cells stably transfected with human APP751, culture medium, ELISA, control DMSO, 0 = no detectable amount; for Aβ1-40 (% of control): CHO cells that overexpress APP751, zero = below the detection limit of the assay.

Test [2] relates to Aβ1-42. Description: Measurement of Aβ1-42 in culture medium of 7W WT APP751 CHO cells by ELISA. The test is classed as cell-based, Chinese hamster. The conditions noted are these: for activity at 5 µM: Cricetulus griseus, Table 1, 5 μM test compound, CHO cells stably transfected with human APP751, culture medium, ELISA, control DMSO, 0 = no detectable amount, read-out: Aβ1-42 (% of control); for Aβ1-42 (% of control): CHO cells that overexpress APP751, zero = below the detection limit of the assay. For orientation: An ELISA detects its analyte on a solid surface through an enzyme-linked reagent.
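Also: 5 µM test compound but RI-coded compounds at 10 µM for 24 hours.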

`CC1=C(C(=O)OCCc2ccccc2)C(c2cccc(Br)c2)C2=C(CCCC2=O)N1` (stereo not shown) [ST052221, 2-phenylethyl 4-(3-bromophenyl)-2-methyl-5-oxo-1,4,6,7,8-pentahydroquinoline-3-carboxylate]: the activity at 5 µM in test [1] was 62.4%; in test [2], 46.1%.

For `COc1ccc(Br)cc1C1C(C(=O)OCC2CCCO2)=C(C)NC2=C1C(=O)CCC2` (stereo not shown) [ST052224, oxolan-2-ylmethyl 4-(5-bromo-2-methoxyphenyl)-2-methyl-5-oxo-1,4,6,7,8-pentahydroquinoline-3-carboxylate], the activity at 5 µM in test [1] was 76.9%; in test [2], 68.1%.

For the molecule `CC1=C(C(=O)OCCc2ccccc2)C(c2ccccc2F)C2=C(CC(C)(C)CC2=O)N1` (stereo not shown) [ST052225, 2-phenylethyl 4-(2-fluorophenyl)-2,7,7-trimethyl-5-oxo-1,4,6,7,8-pentahydroquinoline-3-carboxylate], the activity at 5 µM turned out to be 37.7% in test [1] and 29.7% in test [2].

Turning to `CC1=C(C(=O)OCCc2ccccc2)C(c2ccccc2C(F)(F)F)C2=C(CCCC2=O)N1` (stereo not shown) [ST052228, 2-phenylethyl 2-methyl-5-oxo-4-[2-(trifluoromethyl)phenyl]-1,4,6,7,8-pentahydroquinoline-3-carboxylate], the figures for the activity at 5 µM in test [1] and in test [2] were 60.4% and 36.9%, respectively.

In the case of `CC1=C(C(=O)OCCc2ccccc2)C(c2ccc(N(C)C)cc2)C2=C(CC(C)(C)CC2=O)N1` (stereo not shown) [ST052231, 2-phenylethyl 4-[4-(dimethylamino)phenyl]-2,7,7-trimethyl-5-oxo-1,4,6,7,8-pentahydroquinoline-3-carboxylate], the activity at 5 µM in test [1] turned out to be 38.8%; in test [2], 63.5%.

As to `CC1=C(C(=O)OCCOc2ccccc2)C(c2ccc(C(C)C)cc2)C2=C(CCCC2=O)N1` (stereo not shown) [ST052247, 2-phenoxyethyl 2-methyl-4-[4-(methylethyl)phenyl]-5-oxo-1,4,6,7,8-pentahydroquinoline-3-carboxylate], the activity at 5 µM in test [1] was determined as 98%; in test [2], 64.1%.

On to `COC(=O)C1=CNC=C(C(=O)OC)C1c1cccc(OC)c1` [ST052261, methyl 5-(methoxycarbonyl)-4-(3-methoxyphenyl)-1,4-dihydropyridine-3-carboxylate], for which the “Aβ1-40 (% of control)” value in test [1] is recorded as 38.04 % of control. Also, the “Aβ1-42 (% of control)” value in test [2] is 57.24 % of control.

Turning to `CC1=C(C(=O)OC2CCCC2)C(c2ccc(C)s2)C2=C(CCCC2=O)N1` (stereo not shown) [ST052262, cyclopentyl 2-methyl-4-(5-methyl(2-thienyl))-5-oxo-1,4,6,7,8-pentahydroquinoline-3-carboxylate], the activity at 5 µM in test [1] was 13.2%; in test [2], 19.7%.

Take `CC1=C(C(=O)OC2CCCC2)C(c2ccc(F)c(F)c2)C2=C(CCCC2=O)N1` (stereo not shown) [ST052267, cyclopentyl 4-(3,4-difluorophenyl)-2-methyl-5-oxo-1,4,6,7,8-pentahydroquinoline-3-carboxylate]: the results for the activity at 5 µM in test [1] and in test [2] were 50.7% and 52.8%, respectively.

Turning to `COc1ccc(COC(=O)C2=C(C)NC3=C(C(=O)CCC3)C2c2ccccc2C(F)(F)F)cc1` (stereo not shown) [ST052271, (4-methoxyphenyl)methyl 2-methyl-5-oxo-4-[2-(trifluoromethyl)phenyl]-1,4,6,7,8-pentahydroquinoline-3-carboxylate], the activity at 5 µM was 25.8% in test [1] and 23.9% in test [2].

As to `CC1=C(C(=O)OCCOC(C)C)C(c2ccc([N+](=O)[O-])cc2)C2=C(CC(C)(C)CC2=O)N1` (stereo not shown) [ST052272, 2-(methylethoxy)ethyl 2,7,7-trimethyl-4-(4-nitrophenyl)-5-oxo-1,4,6,7,8-pentahydroquinoline-3-carboxylate], the activity at 5 µM was determined as 65.8% in test [1] and 29.2% in test [2].

As to `COC(=O)C1=CNC=C(C(=O)OC)C1c1cccc(OCc2ccccc2)c1` [ST052273, methyl 5-(methoxycarbonyl)-4-[3-(phenylmethoxy)phenyl]-1,4-dihydropyridine-3-carboxylate], the “Aβ1-40 (% of control)” value in test [1] is recorded as 84.66 % of control. Besides, in test [2], the “Aβ1-42 (% of control)” value is 57.92 % of control.

As for `CCc1ccc(C2C(C(=O)OC)=CNC=C2C(=O)OC)cc1` [ST052274, methyl 4-(4-ethylphenyl)-5-(methoxycarbonyl)-1,4-dihydropyridine-3-carboxylate], the “Aβ1-40 (% of control)” value in test [1] is 4.952 % of control. Further, the “Aβ1-42 (% of control)” value in test [2] is 0 % of control.

With `CC1=C(C(=O)OCCOc2ccccc2)C(c2ccc(C)s2)C2=C(CCCC2=O)N1` (stereo not shown) [ST052280, 2-phenoxyethyl 2-methyl-4-(5-methyl(2-thienyl))-5-oxo-1,4,6,7,8-pentahydroquinoline-3-carboxylate], the activity at 5 µM in test [1] stood at 73.6%; in test [2], 37.7%.

Consider `CCOC(=O)C1=CN(c2ccc(C)cc2)C=C(C(=O)OCC)C1c1ccccc1OCC` [ST052284, ethyl 5-(ethoxycarbonyl)-4-(2-ethoxyphenyl)-1-(4-methylphenyl)-1,4-dihydropyridine-3-carboxylate], for which the “Aβ1-40 (% of control)” value in test [1] is 57.71 % of control. The “Aβ1-42 (% of control)” value in test [2] is on record as 55.61 % of control.

Turning to `COc1ccccc1NC(=O)C1=C(C)NC2=C(C(=O)CCC2)C1c1ccc(Cl)cc1` (stereo not shown) [ST052292, [4-(4-chlorophenyl)-2-methyl-5-oxo(3-1,4,6,7,8-pentahydroquinolyl)]-N-(2-methoxyphenyl)carboxamide], the activity at 5 µM was 85.8% in test [1] and 68.2% in test [2].

Turning to `COC(=O)C1=C(C)NC2=C(C(=O)CC(c3cccs3)C2)C1c1ccc(C)s1` (stereo not shown) [ST052308, methyl 2-methyl-4-(5-methyl(2-thienyl))-5-oxo-7-(2-thienyl)-1,4,6,7,8-pentahydroquinoline-3-carboxylate], the figures for the activity at 5 µM in test [1] and in test [2] were 48.4% and 74.2%, respectively.

As to `COCCOC(=O)C1=C(C)NC2=C(C(=O)CC(C)(C)C2)C1c1ccc(C(C)C)cc1` (stereo not shown) [ST052313, 2-methoxyethyl 2,7,7-trimethyl-4-[4-(methylethyl)phenyl]-5-oxo-1,4,6,7,8-pentahydroquinoline-3-carboxylate], the values for the activity at 5 µM in test [1] and in test [2] were 26.3% and 23.4%, respectively.

`CCOC(=O)C1=CN(c2ccc(F)cc2)C=C(C(=O)OCC)C1c1ccccc1OCC` [ST052316, ethyl 5-(ethoxycarbonyl)-4-(2-ethoxyphenyl)-1-(4-fluorophenyl)-1,4-dihydropyridine-3-carboxylate]: the “Aβ1-40 (% of control)” value in test [1] is reported as 68.09 % of control. Besides, in test [2], the “Aβ1-42 (% of control)” value is reported as 40.03 % of control.

In the case of `CC1=C(C(=O)OCCc2ccccc2)C(c2ccc(C(F)(F)F)cc2)C2=C(CCCC2=O)N1` (stereo not shown) [ST052320, 2-phenylethyl 2-methyl-5-oxo-4-[4-(trifluoromethyl)phenyl]-1,4,6,7,8-pentahydroquinoline-3-carboxylate], the activity at 5 µM came to 9.44% in test [1] and 0% in test [2].

With `CC1=C(C(=O)OCc2ccccc2)C(c2ccc(C(F)(F)F)cc2)C2=C(CCCC2=O)N1` (stereo not shown) [ST052323, phenylmethyl 2-methyl-5-oxo-4-[4-(trifluoromethyl)phenyl]-1,4,6,7,8-pentahydroquinoline-3-carboxylate], the activity at 5 µM amounted to 4.91% in test [1] and 0% in test [2].

As for `COc1ccc(C2C(C(=O)OC3CCCCC3)=C(C)NC3=C2C(=O)CC(C)(C)C3)cc1O` (stereo not shown) [ST052325, cyclohexyl 4-(3-hydroxy-4-methoxyphenyl)-2,7,7-trimethyl-5-oxo-1,4,6,7,8-pentahydroquinoline-3-carboxylate], the figures for the activity at 5 µM in test [1] and in test [2] were 41.7% and 33%, respectively.

For `CCOC(=O)C1=CN(c2ccc(F)cc2)C=C(C(=O)OCC)C1c1cccs1` [ST052327, ethyl 5-(ethoxycarbonyl)-1-(4-fluorophenyl)-4-(2-thienyl)-1,4-dihydropyridine-3-carboxylate], the “Aβ1-40 (% of control)” value in test [1] was 57.74 % of control. For the same molecule, the “Aβ1-42 (% of control)” value in test [2] is on record as 84.33 % of control.

As for `CC1=C(C(=O)OCCOc2ccccc2)C(c2coc3ccc(C)cc3c2=O)C2=C(CCCC2=O)N1` (stereo not shown) [ST052330, 2-phenoxyethyl 2-methyl-4-(6-methyl-4-oxochromen-3-yl)-5-oxo-1,4,6,7,8-pentahydroquinoline-3-carboxylate], the activity at 5 µM in test [1] turned out to be 42.6%; in test [2], 15.5%.

As to `CCSCCOC(=O)C1=C(C)NC2=C(C(=O)CC(C)(C)C2)C1c1ccccc1C` (stereo not shown) [ST052342, 2-ethylthioethyl 2,7,7-trimethyl-4-(2-methylphenyl)-5-oxo-1,4,6,7,8-pentahydroquinoline-3-carboxylate], the values for the activity at 5 µM in test [1] and in test [2] were 13.7% and 9.88%, respectively.

On to `CC1=C(C(=O)OCCc2ccccc2)C(c2ccc(C)s2)C2=C(CC(C)(C)CC2=O)N1` (stereo not shown) [ST052344, 2-phenylethyl 2,7,7-trimethyl-4-(5-methyl(2-thienyl))-5-oxo-1,4,6,7,8-pentahydroquinoline-3-carboxylate], for which the activity at 5 µM in test [1] worked out at 24.1%; in test [2], 24.4%.

Take `CC1=C(C(=O)OCC(C)C)C(c2ccc(F)c(F)c2)C2=C(CCCC2=O)N1` (stereo not shown) [ST052345, 2-methylpropyl 4-(3,4-difluorophenyl)-2-methyl-5-oxo-1,4,6,7,8-pentanydroquinoline-3-carboxylate]: the values for the activity at 5 µM in test [1] and in test [2] were 43.6% and 7.81%, respectively.

`COC(=O)C1=C(C)NC2=C(C(=O)CCC2)C1c1cccc(C(F)(F)F)c1` (stereo not shown) [ST052347, methyl 2-methyl-5-oxo-4-[3-(trifluoromethyl)phenyl]-1,4,6,7,8-pentahydroquinoline-3-carboxylate]: the activity at 5 µM was found to be 57.2% in test [1] and 64.3% in test [2].

With `CC1=C(C(=O)OCC(C)C)C(c2cc([N+](=O)[O-])ccc2Cl)C2=C(CCCC2=O)N1` (stereo not shown) [ST052351, 2-methylpropyl 4-(2-chloro-5-nitrophenyl)-2-methyl-5-oxo-1,4,6,7,8-pentahydroquinoline-3-carboxylate], the values for the activity at 5 µM in test [1] and in test [2] were 19.3% and 20.3%, respectively.
